Measured values as given in publication PMC6454892 (Nature chemistry, 2018).

Test system: A. baumannii
Assay: MIC screening against A. baumannii
Type: cell-based
Conditions: tested separately, unconjugated

Q: How did the “efficacy against A. baumannii (in words)” value turn out when `CN[C@H](CC(C)C)C(=O)N[C@H]1C(=O)N[C@@H](CC(N)=O)C(=O)N[C@H]2C(=O)N[C@H]3C(=O)N[C@H](C(=O)N[C@H](C(=O)O)c4cc(O)cc(O)c4-c4cc3ccc4O)[C@H](O)c3ccc(c(Cl)c3)Oc3cc2cc(c3O[C@@H]2O[C@H](CO)[C@@H](O)[C@H](O)[C@H]2O[C@H]2C[C@](C)(N)[C@H](O)[C@H](C)O2)Oc2ccc(cc2Cl)[C@H]1O` [vancomycin] was run?
A: ineffective
